According to patent US20060084704A1, “Methods and compositions for enhancing degradation of nuclear receptor transcription factors and uses thereof” (priority 2004, published 2006):

Tests used:
hsp70 = assay: Western blot of LNCaP cell lysates, hsp70; assay type: cell-based, human; conditions: 1 or 2 micromolar, 24 hours, presence or absence of DHT
Procedure: Human prostate cancer LNCaP cells and T47D cells were plated at a density of 7×10^5 cells per 60 millimeter tissue culture dish in […] (RPMI) medium containing 10% FBS. The medium was changed to RPMI or DME medium containing 10% charcoal-stripped serum 24 hours later to deplete cellular androgens or estrogens. After another 24 hours, treatment with the test compounds began. The test dose of JC15 was 1 or 2 micromolar and the test does of JC9 was 1, 5 and 10 micromolar. LNCap cells also received dihydrotestosterone (DHT) (3 nanomolar). Control cells received a corresponding amount of the vehicle, dimethylsulfoxide (DMSO) (<0.04%) for an equivalent exposure time. Cells were incubated with JC15 for 24 or 48 hours, and were lysed in 250 microliters of 1×SDS/PAGE loading buffer. Approximately 40 micrograms of total cellular protein was loaded in each lane of a pre-cast gel (NuPAGE, Invitrogen). Protein separation and transfer were performed following the manufacturer's instructions.
For the prostate cell lysates, androgen receptor (AR) protein was visualized by incubating the resultant membranes with an anti-AR antibody (BD-PharMingen), followed by chemiluminescence detection (ECL Plus, Amersham). […] The resultant protein signals were quantified using densitometry and NIH ImageJ software.

progesterone receptor = target: T1, progesterone receptor (Homo sapiens, UniProt P06401); assay: Western blot of LNCaP cell lysates, progesterone receptor; assay type: cell-based; conditions: 1 or 2 micromolar, 24 hours, presence or absence of DHT
T1 construct: endogenous in cells; host or cells: LNCaP
T1 sequence (P06401 1-933): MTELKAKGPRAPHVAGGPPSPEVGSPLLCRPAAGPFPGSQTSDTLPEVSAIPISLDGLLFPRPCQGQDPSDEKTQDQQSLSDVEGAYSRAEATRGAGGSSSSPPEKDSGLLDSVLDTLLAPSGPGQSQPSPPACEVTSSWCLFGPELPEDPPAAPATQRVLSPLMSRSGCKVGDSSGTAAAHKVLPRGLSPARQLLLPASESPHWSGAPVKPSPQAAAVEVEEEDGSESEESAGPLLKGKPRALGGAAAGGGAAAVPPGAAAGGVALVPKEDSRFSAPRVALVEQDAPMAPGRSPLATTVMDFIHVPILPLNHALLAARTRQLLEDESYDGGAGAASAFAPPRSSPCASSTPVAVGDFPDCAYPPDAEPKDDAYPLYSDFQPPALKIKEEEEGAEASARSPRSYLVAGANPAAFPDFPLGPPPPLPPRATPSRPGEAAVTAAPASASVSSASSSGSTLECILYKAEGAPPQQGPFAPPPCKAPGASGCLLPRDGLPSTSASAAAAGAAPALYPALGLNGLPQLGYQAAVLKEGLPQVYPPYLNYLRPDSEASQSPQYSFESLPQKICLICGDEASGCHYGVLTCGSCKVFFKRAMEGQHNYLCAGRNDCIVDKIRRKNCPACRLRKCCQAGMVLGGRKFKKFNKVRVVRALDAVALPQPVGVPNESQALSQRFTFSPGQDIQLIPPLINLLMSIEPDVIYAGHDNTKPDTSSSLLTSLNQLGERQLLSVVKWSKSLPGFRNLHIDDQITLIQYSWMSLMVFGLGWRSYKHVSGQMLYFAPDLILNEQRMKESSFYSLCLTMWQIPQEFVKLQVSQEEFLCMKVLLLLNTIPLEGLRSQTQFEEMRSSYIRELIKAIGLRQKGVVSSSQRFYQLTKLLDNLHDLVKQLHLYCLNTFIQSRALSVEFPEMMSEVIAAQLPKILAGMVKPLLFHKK

## CCOC(=O)CCC(C(=O)C=Cc1ccc(O)c(OC)c1)C(=O)C=Cc1ccc(O)c(OC)c1 (centres unmarked) [JC15, 7-(4-hydroxy-3-methoxyphenyl)-4-[3-(4-hydroxy-3-methoxyphenyl)acryloyl]-5-oxo-hept-6-enoic acid ethyl ester]
hsp70
  cellular concentration of hsp70: did not substantially affect
Progesterone receptor
  cellular concentration of progesterone receptor: decreased
